Experimental data as given in article PMC10813319 (Biomedicines, 2024).

Tested on: PrP^C overexpression-induced cofilactin rods in rat hippocampal neurons

C[C@H](O)[C@@H](N)C(=O)N[C@@H](C(=O)N[C@H](CC(N)=O)C(=O)N[C@H](Cc1ccc(O)cc1)C(=O)N[C@@H](C(=O)O)[C@H](C)O)[C@H](C)O [RAP-103]
Rod formation induced by PrP^C overexpression, 4-day treatment: blocked
Rod formation induced by PrP^C overexpression, treatment for last day only: reversed
